In ChEMBL document CHEMBL1287737, “Identification of potent and reversible cruzipain inhibitors for the treatment of Chagas disease” (Bioorg Med Chem Lett, 2010):
Active and inactive are the calls of the source. The calls are words filed in the database; no cut-off is given here.

How the values were obtained:
[1] = biological target: Cruzipain (Trypanosoma cruzi, UniProt P25779)
Description: Inhibition of Trypanosoma cruzi Cruzipain

[2] = biological target: Cathepsin B (Homo sapiens, UniProt P07858)
Description: Inhibition of human Cat B in HepG2 cells

[3] = biological target: Procathepsin L (Homo sapiens, UniProt P07711)
Sequence of Procathepsin L (P07711 whole entry): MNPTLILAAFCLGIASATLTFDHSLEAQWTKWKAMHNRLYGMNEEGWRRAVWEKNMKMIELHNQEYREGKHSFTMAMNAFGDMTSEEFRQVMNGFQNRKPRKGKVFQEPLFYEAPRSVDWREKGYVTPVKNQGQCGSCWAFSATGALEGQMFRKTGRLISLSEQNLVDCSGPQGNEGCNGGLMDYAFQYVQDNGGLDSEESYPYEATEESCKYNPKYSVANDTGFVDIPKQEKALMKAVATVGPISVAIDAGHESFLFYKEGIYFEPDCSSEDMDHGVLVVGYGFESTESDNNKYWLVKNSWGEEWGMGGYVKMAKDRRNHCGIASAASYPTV
Description: Inhibition of human Cat L

[4] = tested on: Trypanosoma cruzi; test: Antimicrobial activity against Trypanosoma cruzi infected in mouse assessed as reduction in parasitemia; assay type: functional, organism-based
[5] = species: Mus musculus; test: Toxicity in Trypanosoma cruzi infected mouse; assay type: organism-based; settings: in vivo
[6] = Half life in mouse; assay type: ADME, organism-based; settings: in vivo
[7] = biological target: Cathepsin S (Homo sapiens, UniProt P25774); test: Inhibition of human Cat S expressed in Ramos cells; assay type: cell-based
Sequence of Cathepsin S (P25774 whole entry): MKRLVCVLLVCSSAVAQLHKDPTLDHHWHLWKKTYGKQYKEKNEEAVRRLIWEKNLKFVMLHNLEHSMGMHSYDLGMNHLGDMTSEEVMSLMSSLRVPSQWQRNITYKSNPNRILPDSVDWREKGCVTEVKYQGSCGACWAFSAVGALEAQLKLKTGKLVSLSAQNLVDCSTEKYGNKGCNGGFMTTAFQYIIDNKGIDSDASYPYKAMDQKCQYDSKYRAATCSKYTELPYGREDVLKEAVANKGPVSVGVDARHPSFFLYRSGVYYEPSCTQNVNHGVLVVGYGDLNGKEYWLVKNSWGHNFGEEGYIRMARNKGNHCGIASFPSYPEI

[8] = biological target: T1, Cathepsin K (Homo sapiens, UniProt P43235); test: Inhibition of human Cat K expressed in Ramos cells; assay type: cell-based
T1 sequence (P43235 whole entry): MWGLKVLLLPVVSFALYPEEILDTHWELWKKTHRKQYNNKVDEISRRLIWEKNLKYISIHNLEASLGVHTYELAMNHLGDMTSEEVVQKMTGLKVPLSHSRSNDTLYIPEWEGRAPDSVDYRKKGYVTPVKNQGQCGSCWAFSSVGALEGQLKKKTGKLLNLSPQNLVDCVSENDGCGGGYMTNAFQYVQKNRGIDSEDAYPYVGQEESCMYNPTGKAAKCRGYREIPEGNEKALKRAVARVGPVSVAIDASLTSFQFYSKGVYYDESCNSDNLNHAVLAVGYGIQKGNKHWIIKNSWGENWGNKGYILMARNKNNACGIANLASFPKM

[9] = biological target: T2, Cathepsin L2 (Homo sapiens, UniProt O60911); test: Inhibition of human Cat V
T2 sequence (O60911 whole entry): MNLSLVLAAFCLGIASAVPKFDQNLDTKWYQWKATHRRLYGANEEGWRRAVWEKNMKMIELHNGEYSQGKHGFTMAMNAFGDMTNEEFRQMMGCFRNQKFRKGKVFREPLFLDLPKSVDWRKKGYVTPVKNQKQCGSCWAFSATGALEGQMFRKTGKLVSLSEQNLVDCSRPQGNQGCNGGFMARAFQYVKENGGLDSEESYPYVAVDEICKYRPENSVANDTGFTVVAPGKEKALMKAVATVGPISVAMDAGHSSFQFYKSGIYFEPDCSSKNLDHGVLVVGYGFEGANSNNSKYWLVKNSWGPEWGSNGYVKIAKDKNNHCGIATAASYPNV

[10] = Oral bioavailability in rat; assay type: ADME, organism-based; settings: in vivo
[11] = Oral bioavailability in dog; assay type: ADME, organism-based, Canis lupus familiaris; settings: in vivo
[12] = Half life in rat; assay type: ADME, organism-based; settings: in vivo
[13] = Half life in dog; assay type: ADME, organism-based, Canis lupus familiaris; settings: in vivo

Sequence of Cruzipain (P25779 whole entry): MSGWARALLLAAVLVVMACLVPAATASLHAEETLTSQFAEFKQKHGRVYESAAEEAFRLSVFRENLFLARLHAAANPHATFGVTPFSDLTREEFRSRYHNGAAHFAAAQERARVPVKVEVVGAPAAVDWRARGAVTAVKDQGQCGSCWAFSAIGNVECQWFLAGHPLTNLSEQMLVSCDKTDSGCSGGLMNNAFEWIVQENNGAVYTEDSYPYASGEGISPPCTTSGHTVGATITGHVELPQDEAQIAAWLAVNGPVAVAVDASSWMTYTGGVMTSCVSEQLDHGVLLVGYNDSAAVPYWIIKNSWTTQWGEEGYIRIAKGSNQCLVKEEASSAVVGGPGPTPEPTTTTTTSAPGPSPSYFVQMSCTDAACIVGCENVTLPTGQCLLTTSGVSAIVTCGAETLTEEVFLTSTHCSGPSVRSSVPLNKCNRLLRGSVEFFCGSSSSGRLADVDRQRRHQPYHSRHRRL

Compound | IC50 [1] [nM] | IC50 [2] [nM] | IC50 [3] [nM] | further results
CC(C)(C)[C@H](N[C@@H](c1ccc(-c2ccc(S(C)(=O)=O)cc2)cc1)C(F)(F)F)C(=O)N[C@H](C#N)Cc1ccccc1 | 380 | > 10000 | > 10000 | 
CC(C)C[C@H](N[C@@H](c1ccc(-c2ccc(N3CCNCC3)cc2)cc1)C(F)(F)F)C(=O)NCC#N | 1.8 |  |  | Activity [4]: Active; Activity [5]: Non-toxic
CC(C)(F)C[C@H](N[C@@H](c1ccc(-c2ccc(S(C)(=O)=O)cc2)cc1)C(F)(F)F)C(=O)N[C@H](C#N)Cc1ccccc1 |  | 122 | 966 | half-life [6]: < 0.5 h
CC(C)[C@H](N[C@@H](c1ccc(-c2ccc([C@@H](O)C(F)F)cc2)cc1)C(F)(F)F)C(=O)N[C@H](C#N)Cc1ccc(C#N)cc1F |  | 87 | 1060 | IC50 [7]: 322 nM; IC50 [8]: 2 nM; IC50 [9]: 69 nM; bioavailability [10]: 20%; bioavailability [11]: 30%; half-life [12]: 5.2 h; half-life [13]: 4.6 h
CS(=O)(=O)c1ccc(-c2ccc([C@H](N[C@@H](CC3CC3)C(=O)N[C@H](C#N)Cc3ccccc3)C(F)(F)F)cc2)cc1 |  | 231 | 5250 | 
CC(C)(F)C[C@H](N[C@@H](c1ccc(-c2ccc(C3(C(=O)N4CCOCC4)CC3)cc2)cc1)C(F)(F)F)C(=O)N[C@H](C#N)Cc1ccccc1 |  | 64 | 1080 | 
CC(C)(F)C[C@H](N[C@@H](c1ccc(-c2ccc(S(C)(=O)=O)cc2)cc1)C(F)(F)F)C(=O)N[C@H](C#N)C1(c2ccccc2)CC1 | > 10000 | > 10000 | > 10000 | 
CC(C)(F)C[C@H](N[C@@H](c1ccc(-c2ccc([C@@H](O)C(F)F)cc2)cc1)C(F)(F)F)C(=O)N[C@H](C#N)Cc1ccccc1 |  | 48 | 1090 | 
CC(C)(F)C[C@H](N[C@@H](c1ccc(-c2ccc(S(C)(=O)=O)cc2)cc1)C(F)(F)F)C(=O)N[C@H](C#N)CC(F)(F)F | 130 |  | 2630 | 
CC(C)(F)C[C@H](N[C@@H](c1ccc(-c2ccc(S(C)(=O)=O)cc2)cc1)C(F)(F)F)C(=O)N[C@H](C#N)CCc1ccccc1 | 510 | 397 | > 10000 | 

More lines, main results first:

IC50 [1] [nM] | IC50 [2] [nM] | IC50 [3] [nM] | Compound | further results
 | 383 | 42 | CS(=O)(=O)c1ccc(-c2ccc([C@H](N[C@@H](CC(Cl)Cl)C(=O)N[C@H](C#N)Cc3ccccc3)C(F)(F)F)cc2)cc1 | 
 | 433 | 631 | CC(C)[C@H](N[C@@H](c1ccc(-c2ccc(S(C)(=O)=O)cc2)cc1)C(F)(F)F)C(=O)N[C@H](C#N)Cc1ccccc1 | 
 | 79 | 219 | CC(C)(F)C[C@H](N[C@@H](c1ccc(-c2ccc(S(C)(=O)=O)cc2)cc1)C(F)(F)F)C(=O)N[C@H](C#N)Cc1ccncc1 | 
0.2 | 163 | 117 | CC(C)C[C@H](N[C@@H](c1ccc(-c2ccc(S(C)(=O)=O)cc2)cc1)C(F)(F)F)C(=O)N[C@H](C#N)Cc1ccccc1 | 
33 | 59 | 379 | CC(C)(F)C[C@H](N[C@@H](c1ccc(-c2cn[nH]c2)cc1)C(F)(F)F)C(=O)N[C@H](C#N)Cc1ccccc1 | 
 |  | 436 | CC(C)(F)C[C@H](N[C@@H](c1ccc(-c2ccc(-c3ccncc3)cc2)cc1)C(F)(F)F)C(=O)N[C@H](C#N)Cc1ccccc1 | 
 | 260 | 711 | CC(C)(F)C[C@H](N[C@@H](c1ccc(-c2ccc(S(C)(=O)=O)cc2)cc1)C(F)(F)F)C(=O)N[C@@H](C#N)Cc1ccc(C#N)cc1F | 
 | 143 | 121 | CC(C)[C@H](N[C@@H](c1ccc(-c2ccc(S(C)(=O)=O)cc2)cc1)C(F)(F)F)C(=O)N[C@H](C#N)Cc1ccc(C#N)cc1F | IC50 [7]: 169 nM; IC50 [8]: 0.9 nM; IC50 [9]: 28 nM
7 | 577 | 458 | CS(=O)(=O)c1ccc(-c2ccc([C@H](N[C@@H](Cc3ccccc3)C(=O)N[C@H](C#N)Cc3ccccc3)C(F)(F)F)cc2)cc1 | 
 | 9 | 49 | CC(C)(F)C[C@H](N[C@@H](c1ccc(-c2ccc(S(C)(=O)=O)cc2)cc1)C(F)(F)F)C(=O)N[C@H](C#N)Cc1ccc(C#N)cc1F | 
 | 27 | 426 | CC(C)(F)C[C@H](N[C@@H](c1ccc(-c2ccc(C3(C(N)=O)CC3)cc2)cc1)C(F)(F)F)C(=O)N[C@H](C#N)Cc1ccccc1 | 
 | 41 | 98 | CC(C)[C@H](N[C@@H](c1ccc(-c2ccc(C3(C(N)=O)CC3)cc2)cc1)C(F)(F)F)C(=O)N[C@H](C#N)Cc1ccc(C#N)cc1F | IC50 [7]: 408 nM; IC50 [8]: 3 nM; IC50 [9]: 79 nM
7 | 68 | 751 | CS(=O)(=O)c1ccc(-c2ccc([C@H](N[C@H](C(=O)N[C@H](C#N)Cc3ccccc3)C3CC3)C(F)(F)F)cc2)cc1 | 
